Data on 13 molecules can be found in PubChem BioAssay (NCI).

Among the test systems are MDA-N; K-562 leukemia; NCI-H522 lung; HOP-62 NSCLC; DU-145 prostate; HCT-15 colon; SNB-75 CNS; PC-3 prostate; UO-31 renal; NCI-H226 lung.
What all share (test): growth of human tumour cells (NCI), 48 h

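48-hour exposure; five concentrations; linearly interpolated endpoints. The concentration for 50% growth inhibition is given as GI50. TGI is the concentration that stops growth completely.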

For the molecule `Nc1nc(Cl)cc(NCC2(O)CC2)n1`, the TGI with MDA-N, in the assay with K-562 leukemia, with NCI-H522 lung, in the assay on HOP-62 NSCLC, in the assay with DU-145 prostate and in the assay with HCT-15 colon was above 100 µM throughout. In addition, the TGI with SNB-75 CNS, in the assay on PC-3 prostate, with UO-31 renal and in the assay with NCI-H226 lung was above 100 µM throughout.
With `Cc1cc(C)c(S(=O)(=O)N(CCCN)OCCCON(CCCN)S(=O)(=O)c2c(C)cc(C)cc2C)c(C)c1`, the TGI is 3.51 µM with MDA-N; above 22.5 µM in the assay on K-562 leukemia; 2.88 µM with NCI-H522 lung; 4.02 µM in the assay with HOP-62 NSCLC; 3.15 µM in the assay on DU-145 prostate; 34.8 µM with HCT-15 colon. The TGI in the assay on SNB-75 CNS was determined as 3.29 µM; in the assay with PC-3 prostate, 3.45 µM; in the assay on UO-31 renal, 30.4 µM; with NCI-H226 lung it was 7.66 µM.
Turning to `O=C1C=CC(=O)c2c(O)c(N3CCC[C@H]3CO)c(Cl)c(O)c21`, the TGI with MDA-N is 3.51 µM; in the assay with K-562 leukemia, 1.87 µM; in the assay on NCI-H522 lung it was 0.939 µM; in the assay on HOP-62 NSCLC, above 10 µM; in the assay with DU-145 prostate, above 6.32 µM; in the assay with HCT-15 colon it was 4.15 µM. Also, the TGI in the assay with SNB-75 CNS was above 10 µM; with PC-3 prostate, above 10 µM; with UO-31 renal, above 5.84 µM; with NCI-H226 lung, above 10 µM.
On to `Cc1c(CN2CCN(C)CC2)c(CN2CCN(C)CC2)c(C)n1-c1ccc(Cl)cc1`, for which the TGI with MDA-N was 58.5 µM; in the assay on K-562 leukemia, above 100 µM; with NCI-H522 lung, 40.8 µM; in the assay on HOP-62 NSCLC, above 100 µM; in the assay on DU-145 prostate it was above 100 µM; with HCT-15 colon, above 100 µM. Moreover, the TGI is 88.4 µM in the assay with SNB-75 CNS, above 100 µM with PC-3 prostate, 87.9 µM with UO-31 renal and above 100 µM with NCI-H226 lung.
Regarding `CCn1c2ccc(C(=O)CCCN3CCCCC3)cc2c2cc(C(=O)CCCN3CCCCC3)ccc21`, the TGI with MDA-N is 5.7 µM; with K-562 leukemia, above 22.6 µM; in the assay with NCI-H522 lung it was 4.05 µM; with HOP-62 NSCLC it was 18.2 µM; with DU-145 prostate it was 18.2 µM; in the assay on HCT-15 colon, 5.45 µM. For the same molecule, the TGI in the assay with SNB-75 CNS was 8.26 µM; in the assay on PC-3 prostate, 12.6 µM; in the assay on UO-31 renal it was 18.6 µM; in the assay with NCI-H226 lung it was 27.2 µM.
As for `CCc1c(CNc2ccc(C(=O)NC(CC(=O)O)C(=O)O)cc2)ccc2nc(N)nc(N)c12` (stereo unspecified), the TGI in the assay on MDA-N, in the assay with K-562 leukemia, with NCI-H522 lung, in the assay with HOP-62 NSCLC, with DU-145 prostate and in the assay with HCT-15 colon was above 1000 µM in each case. The TGI in the assay with SNB-75 CNS, in the assay on PC-3 prostate, with UO-31 renal and in the assay with NCI-H226 lung was above 1000 µM throughout. The GI50 is 1.09 µM in the assay with NCI-H522 lung; 0.148 µM in the assay on DU-145 prostate; 115 µM with SNB-75 CNS; below 0.01 µM in the assay with PC-3 prostate; 0.212 µM in the assay with UO-31 renal; above 1000 µM with NCI-H226 lung.
On to `CCC(O)(Cc1ccc(OC)cc1)c1ccc(OC)cc1` (stereo unspecified), for which the TGI with MDA-N, with K-562 leukemia, in the assay on NCI-H522 lung, in the assay on HOP-62 NSCLC, in the assay with DU-145 prostate and with HCT-15 colon was above 100 µM throughout. Further, the TGI with SNB-75 CNS, in the assay with PC-3 prostate, with UO-31 renal and with NCI-H226 lung was above 100 µM in each case.
For `CCCCSc1nsc(N(C(=O)c2ccccc2)C(=O)c2ccccc2)n1`, the TGI with MDA-N was above 100 µM; in the assay on K-562 leukemia it was 99.7 µM; with NCI-H522 lung it was 69.5 µM; in the assay with HOP-62 NSCLC, above 100 µM; in the assay on DU-145 prostate it was above 100 µM; in the assay on HCT-15 colon, above 100 µM. Moreover, the TGI is 73.8 µM in the assay on SNB-75 CNS, above 100 µM with PC-3 prostate, 39.5 µM in the assay on UO-31 renal and 93.9 µM in the assay with NCI-H226 lung.
`O=c1[nH]c2nc3ccccc3nc2[nH]c1=O`: the TGI with MDA-N, in the assay on K-562 leukemia, in the assay with NCI-H522 lung, with HOP-62 NSCLC, in the assay with DU-145 prostate and in the assay with HCT-15 colon was above 100 µM each time. In addition, the TGI with SNB-75 CNS, in the assay with PC-3 prostate, in the assay with UO-31 renal and in the assay with NCI-H226 lung was above 100 µM in each case.
As for `CC(C)(C)OC(=O)NC(Cc1ccccc1)NC(=O)NC(=O)OCc1ccccc1` (stereo unspecified), the TGI in the assay with MDA-N, in the assay with K-562 leukemia, in the assay with NCI-H522 lung, in the assay on HOP-62 NSCLC, in the assay with DU-145 prostate and in the assay with HCT-15 colon was above 100 µM throughout. In addition, the TGI in the assay with SNB-75 CNS was 73.2 µM; in the assay on PC-3 prostate it was above 100 µM; in the assay on UO-31 renal it was above 100 µM; in the assay on NCI-H226 lung, above 100 µM.
For `Cc1ccc2c(c1)-c1c(C#N)c(N)nc(-c3ccc(Cl)cc3)c1CCS2(=O)=O`, the TGI in the assay with MDA-N was 8.88 µM; in the assay with K-562 leukemia, 7.02 µM; in the assay on NCI-H522 lung it was above 23.1 µM; in the assay with HOP-62 NSCLC, above 100 µM; in the assay with DU-145 prostate, above 100 µM; in the assay with HCT-15 colon, above 100 µM. Further, the TGI is 14.3 µM with SNB-75 CNS, above 100 µM in the assay with PC-3 prostate, above 100 µM in the assay on UO-31 renal and above 100 µM with NCI-H226 lung.
For `COc1ccc2nc(/C(N)=C\C#N)ccc2c1`, the TGI in the assay with MDA-N, in the assay on K-562 leukemia, in the assay with NCI-H522 lung, with HOP-62 NSCLC, in the assay with DU-145 prostate and in the assay with HCT-15 colon was above 100 µM in each case. Besides, the TGI with SNB-75 CNS, in the assay with PC-3 prostate, in the assay on UO-31 renal and in the assay on NCI-H226 lung was above 100 µM each time.
Regarding `Cc1cc2ncn(C3CCCCO3)c2cc1C` (stereo unspecified), the TGI with MDA-N, in the assay on K-562 leukemia, in the assay with NCI-H522 lung, with HOP-62 NSCLC, in the assay on DU-145 prostate and with HCT-15 colon was above 100 µM in each case. The TGI with SNB-75 CNS was above 100 µM; in the assay on PC-3 prostate, above 100 µM; with UO-31 renal, 75.1 µM; in the assay on NCI-H226 lung it was above 100 µM.
